ChEMBL document CHEMBL5344477, “Discovery of benzoheterocyclic-substituted amide derivatives as apoptosis signal-regulating kinase 1 (ASK1) inhibitors” (RSC Med Chem, 2024)

Tests used:
[1] = Volume of distribution at steady state in Sprague-Dawley rat at 0.5 mg/kg, iv measured upto 24 hrs by LC-MS/MS analysis; format: ADME, organism-based; conditions: in vivo, read-out: Vdss
[2] = Cmax in Sprague-Dawley rat at 2.5 mg/kg, po measured upto 24 hrs by LC-MS/MS analysis; format: ADME, organism-based; set-up: dose 2.5 mg/kg, time < 24 hrs, route po; conditions: in vivo
[3] = Oral bioavailability in Sprague-Dawley rat at 2.5 mg/kg measured upto 24 hrs by LC-MS/MS analysis; format: ADME, organism-based; conditions: in vivo
[4] = Cmax in Sprague-Dawley rat at 0.5 mg/kg, iv measured upto 24 hrs by LC-MS/MS analysis; format: ADME, organism-based; set-up: time < 24 hrs, dose 0.5 mg/kg, route iv; conditions: in vivo
[5] = Half life in Sprague-Dawley rat at 0.5 mg/kg, iv measured upto 24 hrs by LC-MS/MS analysis; format: ADME, organism-based; conditions: in vivo
[6] = AUClast in Sprague-Dawley rat at 0.5 mg/kg, iv measured upto 24 hrs by LC-MS/MS analysis; format: ADME, organism-based; set-up: time < 24 hrs, dose 0.5 mg/kg, route iv; conditions: in vivo
[7] = AUClast in Sprague-Dawley rat at 2.5 mg/kg, po measured upto 24 hrs by LC-MS/MS analysis; format: ADME, organism-based; set-up: dose 2.5 mg/kg, time < 24 hrs, route po; conditions: in vivo
[8] = Half life in Sprague-Dawley rat at 2.5 mg/kg, po measured upto 24 hrs by LC-MS/MS analysis; format: ADME, organism-based; conditions: in vivo
[9] = Apparent […] clearance in Sprague-Dawley rat at 0.5 mg/kg, iv measured upto 24 hrs by LC-MS/MS analysis; format: ADME, organism-based; conditions: in vivo
[10] = Metabolic stability in human liver microsomes assessed as clearance at 1 uM measured upto 90 mins by LC-MS/MS analysis; format: ADME, Microsome; conditions: read-out: CLH
[11] = Metabolic stability in human liver microsomes assessed as half life at 1 uM measured upto 90 mins by LC-MS/MS analysis; format: ADME, Microsome
[12] = Metabolic stability in rat liver microsomes assessed as clearance at 1 uM measured upto 90 mins by LC-MS/MS analysis; format: ADME, Microsome; conditions: read-out: CLH
[13] = Metabolic stability in rat liver microsomes assessed as half life at 1 uM measured upto 90 mins by LC-MS/MS analysis; format: ADME, Microsome
[14] = Apparent […] clearance in Sprague-Dawley rat at 1 mg/kg, iv measured upto 24 hrs by LC-MS/MS analysis; format: ADME, organism-based; conditions: in vivo
[15] = Half life in Sprague-Dawley rat at 1 mg/kg, iv measured upto 24 hrs by LC-MS/MS analysis; format: ADME, organism-based; conditions: in vivo
[16] = AUClast in Sprague-Dawley rat at 1 mg/kg, iv measured upto 24 hrs by LC-MS/MS analysis; format: ADME, organism-based; set-up: dose 1 mg/kg, time < 24 hrs, route iv; conditions: in vivo
[17] = Volume of distribution at steady state in Sprague-Dawley rat at 1 mg/kg, iv measured upto 24 hrs by LC-MS/MS analysis; format: ADME, organism-based; conditions: in vivo, read-out: Vdss
[18] = Half life in Sprague-Dawley rat at 5 mg/kg, po measured upto 24 hrs by LC-MS/MS analysis; format: ADME, organism-based; conditions: in vivo
[19] = Cmax in Sprague-Dawley rat at 1 mg/kg, iv measured upto 24 hrs by LC-MS/MS analysis; format: ADME, organism-based; set-up: dose 1 mg/kg, time < 24 hrs, route iv; conditions: in vivo
[20] = AUClast in Sprague-Dawley rat at 5 mg/kg, po measured upto 24 hrs by LC-MS/MS analysis; format: ADME, organism-based; set-up: dose 5 mg/kg, time < 24 hrs, route po; conditions: in vivo
[21] = Cmax in Sprague-Dawley rat at 5 mg/kg, po measured upto 24 hrs by LC-MS/MS analysis; format: ADME, organism-based; set-up: dose 5 mg/kg, time < 24 hrs, route po; conditions: in vivo
[22] = Oral bioavailability in Sprague-Dawley rat at 5 mg/kg measured upto 24 hrs by LC-MS/MS analysis; format: ADME, organism-based; conditions: in vivo

Row | Vd [1] [L/kg] | Cmax [2] [ng/mL] | bioavailability [3] [%] | Cmax [4] [ng/mL] | half-life [5] [h] | AUC(0-t) at 24 h [6] [ng·h/mL] | AUC(0-t) at 24 h [7] [ng·h/mL] | half-life [8] [h] | CL/F [9] [mL/min/kg] | CLint scaled at 1 µM [10] [mL/min/kg] | half-life at 1 µM [11] [h] | CLint scaled at 1 µM [12] [mL/min/kg] | half-life at 1 µM [13] [h] | CL/F [14] [mL/min/kg] | half-life [15] [h] | AUC(0-t) at 24 h [16] [ng·h/mL] | Vd [17] [L/kg] | half-life [18] [h] | Cmax [19] [ng/mL] | AUC(0-t) at 24 h [20] [ng·h/mL] | SMILES | also measured
1 | 1.35 | 554 | 95 | 350 | 0.74 | 276 | 1260 | 1.39 | 30 | – | – | – | – | – | – | – | – | – | – | – | CC(C)n1cnnc1-c1cccc(NC(=O)c2cc3c(cc2F)OC(C)(C)C(=O)N3)n1 | –
2 | 1.07 | 832 | 83.6 | 489 | 0.97 | 592 | 2390 | 2.07 | 14 | 4 | 7.24 | 10.2 | 4.08 | – | – | – | – | – | – | – | O=C1COc2cc(F)c(C(=O)Nc3cccc(-c4nncn4C4CC4)n3)cc2N1 | –
3 | – | – | – | – | – | – | – | – | – | 8.5 | 3.41 | 14 | 2.96 | 76.7 | 0.63 | 216 | 2.36 | 1.51 | 440 | 61 | CC(CO)n1cnnc1-c1cccc(NC(=O)c2cc3c(cc2F)CCCC(=O)N3C)n1 (configuration not stated) | Cmax [21]: 28 ng/mL; bioavailability [22]: 5.9%
4 | – | – | – | – | – | – | – | – | – | 9.8 | 2.96 | 19.5 | 2.12 | 72.5 | 0.22 | 229 | 1.25 | 1.55 | 514 | 21 | CC(CO)n1cnnc1-c1cccc(NC(=O)c2cc3c(cc2F)OCC(=O)N3)n1 (configuration not stated) | Cmax [21]: 27 ng/mL; bioavailability [22]: 2.1%

The remaining lines, values behind:

Row | SMILES | Vd [1] [L/kg] | Cmax [2] [ng/mL] | bioavailability [3] [%] | Cmax [4] [ng/mL] | half-life [5] [h] | AUC(0-t) at 24 h [6] [ng·h/mL] | AUC(0-t) at 24 h [7] [ng·h/mL] | half-life [8] [h] | CL/F [9] [mL/min/kg] | CLint scaled at 1 µM [10] [mL/min/kg] | half-life at 1 µM [11] [h] | CLint scaled at 1 µM [12] [mL/min/kg] | half-life at 1 µM [13] [h] | CL/F [14] [mL/min/kg] | half-life [15] [h] | AUC(0-t) at 24 h [16] [ng·h/mL] | Vd [17] [L/kg] | half-life [18] [h] | Cmax [19] [ng/mL] | AUC(0-t) at 24 h [20] [ng·h/mL] | also measured
5 | CC(C)n1cnnc1-c1cccc(NC(=O)c2cc3c(cc2F)OC(C)(C)C(=O)N3C)n1 | 1.88 | 417 | 72.2 | 239 | 0.71 | 218 | 767 | 1.3 | 38 | 5.5 | 5.26 | 27.3 | 1.52 | – | – | – | – | – | – | – | –
6 | O=C1CCc2cc(F)c(C(=O)Nc3cccc(-c4nncn4C4CC4)n3)cc2N1 | 0.96 | 345 | 57.4 | 447 | 0.72 | 469 | 1330 | 2 | 17.7 | 3.8 | 7.54 | 10.2 | 4.07 | – | – | – | – | – | – | – | –
7 | O=C1CCCc2cc(F)c(C(=O)Nc3cccc(-c4nncn4C4CC4)n3)cc2N1 | – | – | – | – | – | – | – | – | – | 2.4 | 11.9 | 4.7 | 8.87 | 14.2 | 0.71 | 1170 | 0.7 | 3.82 | 1220 | 2720 | Cmax [21]: 829 ng/mL; bioavailability [22]: 47%
